Results: paper PMC7756412 (2020)

What was measured:
[1] = test system: Myc-dup3 (DNA, G4) TGAGGGTGGGTAGGGTGGGCTAGTCATTTTGACTAG; assay: ITC, two-site fit; details: 120 mM K+; 100 mM KCl, 20 mM potassium phosphate pH 7.0, 5% DMSO, 40 °C; high-affinity site
[2] = test system: Myc3l-dup5 (DNA, G4) GATCAGTTTTACTGATCGGGTGGTGGGTGGGGAAGG; assay: ITC, two-site fit; details: 120 mM K+; 100 mM KCl, 20 mM potassium phosphate pH 7.0, 5% DMSO, 40 °C; high-affinity site
[3] = test system: Myc-dup3 (DNA, G4) TGAGGGTGGGTAGGGTGGGCTAGTCATTTTGACTAG; assay: CD melting, 265 nm; details: 120 mM Na+; 100 mM NaCl, 20 mM sodium phosphate pH 7; 5 µM DNA, 1 equiv PIQ; quadruplex domain; 44.7 to 68.2 °C
[4] = test system: Myc-dup3 (DNA, G4) TGAGGGTGGGTAGGGTGGGCTAGTCATTTTGACTAG; assay: UV melting, 260 nm; details: 120 mM Na+; 100 mM NaCl, 20 mM sodium phosphate pH 7; 1 equiv PIQ; duplex domain; derived from two Tm (63.6, 70.8)
[5] = test system: Myc-dup5 (DNA, G4) GATCAGTTTTACTGATCGGGTGGGTAGGGTGGGTA; assay: CD melting, 265 nm; details: 120 mM Na+; 100 mM NaCl, 20 mM sodium phosphate pH 7; 5 µM DNA, 1 equiv PIQ; quadruplex domain; 53.2 to 69.7 °C
[6] = test system: Myc-dup5 (DNA, G4) GATCAGTTTTACTGATCGGGTGGGTAGGGTGGGTA; assay: UV melting, 260 nm; details: 120 mM Na+; 100 mM NaCl, 20 mM sodium phosphate pH 7; 1 equiv PIQ; duplex domain; derived from two Tm (67.8, 73.5)
[7] = test system: Myc3l-dup5 (DNA, G4) GATCAGTTTTACTGATCGGGTGGTGGGTGGGGAAGG; assay: CD melting, 265 nm; details: 120 mM Na+; 100 mM NaCl, 20 mM sodium phosphate pH 7; 1 equiv PIQ; quadruplex domain; derived from two Tm (66.3, 73.8)
[8] = test system: Myc3l-dup5 (DNA, G4) GATCAGTTTTACTGATCGGGTGGTGGGTGGGGAAGG; assay: UV melting, 260 nm; details: 120 mM Na+; 100 mM NaCl, 20 mM sodium phosphate pH 7; 1 equiv PIQ; duplex domain; derived from two Tm (69.5, 76.1)
[9] = test system: Myc-dup5 (DNA, G4) GATCAGTTTTACTGATCGGGTGGGTAGGGTGGGTA; assay: NMR titration, chemical shift perturbation; details: K+ (10 mM potassium phosphate); pH 7.0, 20 °C; 5' quadruplex-duplex junction; ITC isotherm not reliably fitted (Ka n.d.)

- Ka [1]: (1.6±0.4)×10^7 M^-1
- Ka [2]: (1.6±0.2)×10^7 M^-1
- ΔTm [3]: 23 °C
- ΔTm [4]: 7.2 °C
- ΔTm [5]: 17 °C
- ΔTm [6]: 5.7 °C
- ΔTm [7]: 7.5 °C
- ΔTm [8]: 6.6 °C
- binding [9]: yes
SMILES: CCN(CC)CCCNC(=O)c1ccc(-c2c3cccc(C)c3[n+](C)c3c2[nH]c2c(C)cccc23)cc1
